Assay results from the SangsterLogP compilation.

Structure (SMILES) | logP
C=COC(=O)[C@@H](C)Oc1cc(Oc2ccc(C(F)(F)F)cc2Cl)ccc1[N+](=O)[O-] | 4.54
CCOC(=O)C(C)OC(=O)c1cc(Oc2ccc(C(F)(F)F)cc2Cl)ccc1[N+](=O)[O-] (stereo not drawn) | 4.81
CC(C)OC(=O)c1cc(OC(=O)N2CCCC2)c(F)cc1Cl | 4.2
O=[N+]([O-])c1ccc(Oc2ccc(Cl)cc2Cl)cc1 | 4.64
COC(=O)c1cc(OC(=O)N2CCCC2)c(Cl)cc1Cl | 3.95
O=[N+]([O-])c1ccc(Oc2ccc(C(F)(F)F)cc2Cl)cc1 | 4.54
C#CCOc1cc(OC(=O)N2CCCC2)c(Cl)cc1Cl | 3.82
O=C(Oc1ccc(Cl)cc1)N1CCCC1 | 3.38
COC(=O)c1cc(Oc2ccc(C(F)(F)F)cc2Cl)ccc1Cl | 5.04
Cc1cccc(Oc2ccc([N+](=O)[O-])cc2)c1 | 4.4
COC(=O)c1cc(S(=O)(=O)c2ccc(C(F)(F)F)cc2Cl)ccc1[N+](=O)[O-] | 3.57
C#CCOC1=Nc2ccc(OC(=O)N3CCCC3)cc2OC1 | 2.93
COC(=O)CC(C)(N=O)c1cc(Oc2ccc(C(F)(F)F)cc2Cl)ccc1[N+](=O)[O-] (stereo not drawn) | 4.54
C#CCOc1cc(OC(=O)N2CCCCC2)c(Cl)cc1Cl | 4.25
C#CCOc1cc(OC(=O)N(CC)CC)c(Cl)cc1Cl | 3.95
O=[N+]([O-])c1ccc(Oc2ccc(C(F)(F)F)cc2Cl)cc1Oc1ccoc1 | 4.33
O=C(Oc1ccccc1)N1CCCC1 | 2.73
COC(=O)c1cc(S(=O)c2ccc(C(F)(F)F)cc2Cl)ccc1[N+](=O)[O-] (stereo not drawn) | 3.65
C#CCOc1cc(OC(=O)N2CCC(F)(F)C2)c(Cl)cc1Cl | 3.42
CC(C)OC(=O)c1cc(OC(=O)N2CCCC2)c(Cl)cc1Cl | 4.67
COC(=O)c1cc(Oc2cc(C(F)(F)F)ccc2Cl)ccc1[N+](=O)[O-] | 4.21
C#CCOc1cc(OC(=O)N2CCC(F)(F)CC2)c(Cl)cc1Cl | 3.57
O=C(Oc1cc(O)c(Cl)cc1Cl)N1CCCC1 | 2.98
O=C(Oc1ccccc1Cl)N1CCCC1 | 3.13
Nc1c([N+](=O)[O-])ccc(Oc2ccccc2)c1Cl | 4.04
COC(=O)c1cc(Oc2ccc(C(F)(F)F)cc2Cl)ccc1[N+](=O)[O-] | 4.26
O=C(Oc1ccc(Cl)cc1Cl)N1CCCC1 | 3.94
O=C(O)COC(=O)c1cc(Oc2ccc(C(F)(F)F)cc2Cl)ccc1[N+](=O)[O-] | 4.27
